Laboratory results from article PMC10243242 (European Journal of Clinical Pharmacology, 2023).
“And” between values parts separate entries of the source, which are not always exact repeats. Equal entries are not always repeated. Where two headings read alike, the source gives them in different places. Marks after values point to notes of the source that are not given here.

Columns and labels:
[1] = Clinical drug-drug interaction study: plasma pharmacokinetics of dextromethorphan and dextrorphan with and without emvododstat; assay type: in vivo, human; details: for CL/F: dextromethorphan; for Tmax: median (range)
Protocol: (§1) On day 1, 18 healthy subjects (ages ≥ 18 and ≤ 65 years) received a single oral dose of 30 mg (capsule) dextromethorphan followed by a 4-day washout period. On day 5, subjects received a single oral dose of 250 mg emvododstat with food. Two hours later, subjects were administered a single oral dose of 30 mg modified-release dextromethorphan.
Blood samples (3 mL) for dextromethorphan and dextrorphan assessments were collected in K2EDTA vacutainers on day 1 (dextromethorphan alone) and on day 5 (dextromethorphan in combination with emvododstat) at the following timepoints: 0- (predose), 0.5-, 1-, 2-, 3-, 4-, 5-, 6-, 8-, 12-, 24-, and 48-h post dextromethorphan dose. Within 120 min of collection of blood samples, plasma was harvested by centrifuging blood samples at 2000 ± 20 g for 10 min at 4 °C. Upon harvesting, plasma was transferred to 2-mL polypropylene tubes and immediately stored at – 20 ± 5 °C until analysis.
Concentrations of dextromethorphan and dextrorphan in human plasma samples were determined using high-performance liquid chromatography with tandem mass […] (LC-MS/MS) detection. The bioanalytical method was validated, and its performance during bioanalysis was within the limits specified in current regulatory guidance over a calibration range of 50 to 50,000 pg/mL. Validation included testing such as linearity, sensitivity, specificity, selectivity, accuracy and precision, dilution effects, recovery, ruggedness, and stability.
Briefly, dextromethorphan and dextrorphan were extracted from 0.2 mL of human K2EDTA plasma using an automated liquid–liquid extraction followed by detection using LC-MS/MS. Stable isotope labeled internal standard (dextromethorphan-d3 and dextrorphan-d3) was used to track the analytes potential variability. To 0.2 mL of plasma, the internal standard (IS) working solution diluted in an ammonium formate/ammonium hydroxide buffer solution was added. The analytes and ISs were extracted using methyl-tert-butyl-ether (MTBE). A portion of the upper layer was transferred to a 96 deep well collection plate using an automated liquid handling system. After evaporation to dryness, the dry residue was reconstituted with the mobile phase and injected on a Sciex API 4000. The chromatographic separation was performed in isocratic mode using BetaSil CN column (dimensions 50 × 4.6 mm, 5 μm) and methanol/Milli-Q type water with ammonium formate and formic acid as mobile phase. The mass spectrometer detection was performed in positive ion mode with multiple reaction monitoring (MRM) transitions of 272.2 → 215.3, 275.2 → 215.3, 258.2 → 201.2, and 261.2 → 157.2 for dextromethorphan, dextromethorphan-d3, dextrorphan, and dextrorphan-d3, respectively.
Dextromethorphan and dextrorphan concentrations in study plasma samples were determined using duplicate plasma calibration curves of dextromethorphan and dextrorphan in each analytical batch. Additionally, duplicate quality control plasma samples spiked with dextromethorphan and dextrorphan at four concentration levels (low, 150 pg/mL; intermediate, 2000 pg/mL; medium, 25,000 pg/mL; and high, […]) were included in each analytical batch to assess the assay performance of the bioanalytical method. The accuracy (%bias) of QC samples in all analytical batches was within ± 4.6%, and precision (%coefficient of variation) was less than 6.2% for dextromethorphan and dextrorphan.
Non-compartmental pharmacokinetics were performed using Phoenix® WinNonlin (Version 8.1, Certara, Princeton, NJ, USA). Primary parameters consisted of AUC0-last, AUC0-inf, and Cmax. Secondary parameters included T1/2, Tmax, and CL/F (drug clearance). Bioavailability assessments were calculated using SAS software (Version 9.4, SAS, Cary, NC, USA) in accordance with current regulatory guidelines. A mixed linear model was fitted on log-transformed AUC0-inf, AUC0-t, and Cmax for both parent and metabolite. […]

[2] = Safety and tolerability in healthy subjects; assay type: in vivo, human; details: single doses of dextromethorphan 30 mg with and without emvododstat 250 mg, 18 healthy subjects
Source text: The safety and tolerability of dextromethorphan alone and with emvododstat were monitored.

[3] = test system: SARS-CoV-2; set-up: method as in PMID 33249060; details: SARS-CoV-2019, cell culture, cited from earlier work
[4] = target: T1, CYP2D6 (Homo sapiens, UniProt P10635); set-up: method as in PMID 34846990; details: cited from earlier work
T1 sequence (P10635 whole entry): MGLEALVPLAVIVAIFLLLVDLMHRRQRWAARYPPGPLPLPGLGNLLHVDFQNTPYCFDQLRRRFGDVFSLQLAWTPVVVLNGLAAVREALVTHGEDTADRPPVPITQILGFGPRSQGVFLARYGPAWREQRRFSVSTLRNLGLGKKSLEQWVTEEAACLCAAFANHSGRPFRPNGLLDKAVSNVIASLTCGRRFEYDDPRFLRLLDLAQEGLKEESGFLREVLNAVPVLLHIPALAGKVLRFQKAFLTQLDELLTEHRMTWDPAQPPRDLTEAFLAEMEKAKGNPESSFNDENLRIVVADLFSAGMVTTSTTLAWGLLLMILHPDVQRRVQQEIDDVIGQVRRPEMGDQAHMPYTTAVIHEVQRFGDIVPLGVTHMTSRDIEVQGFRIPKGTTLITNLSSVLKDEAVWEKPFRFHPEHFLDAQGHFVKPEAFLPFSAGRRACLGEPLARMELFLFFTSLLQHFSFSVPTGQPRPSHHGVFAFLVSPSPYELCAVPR

[5] = test system: human bone marrow progenitor cells; details: cultured human bone marrow progenitor cells; cited from earlier work
[6] = rats dosed for up to 28 days; cited from earlier work
[7] = dogs dosed for up to 28 days; cited from earlier work
[8] = humans; cited from earlier work
[9] = target: T1, CYP2D6; assay: Clinical drug-drug interaction study: in vivo CYP2D6 inhibition with dextromethorphan as probe substrate; set-up: On day 1, 18 healthy subjects (ages ≥ 18 and ≤ 65 years) received a single oral dose of 30 mg (capsule) dextromethorphan; from tissue; host or cells: Healthy human subjects in vivo; The enzyme is their own; details: single oral dose 250 mg emvododstat, dextromethorphan as sensitive probe substrate, healthy subjects
Protocol: as §1
Non-compartmental pharmacokinetics were performed using Phoenix® WinNonlin (Version 8.1, Certara, Princeton, NJ, USA). Primary parameters consisted of AUC0-last, AUC0-inf, and Cmax. Secondary parameters included T1/2, Tmax, and CL/F (drug clearance). Bioavailability assessments were calculated using SAS software (Version 9.4, SAS, Cary, NC, USA) in accordance with current regulatory guidelines. A mixed linear model was fitted on log-transformed AUC0-inf, AUC0-t, and Cmax for both parent and metabolite. The model included terms for treatment (combined emvododstat + dextromethorphan as test treatment versus dextromethorphan as reference treatment) and subject as a random factor. LSM (geometric least squares mean) for the treatment ratio and 90% confidence intervals (90% CI) were estimated from the model.

[10] = dextromethorphan with emvododstat vs alone
[11] = dextrorphan in plasma after 30 mg dextromethorphan alone, geometric mean (%CV)
[12] = dextrorphan in plasma after 30 mg dextromethorphan with 250 mg emvododstat, geometric mean (%CV)

## COc1ccc2c(c1)[C@]13CCCC[C@@H]1[C@H](C2)N(C)CC3 [Dextromethorphan, dextromethorphan, reference compound]
[1]; dextromethorphan in plasma, 30 mg dextromethorphan with 250 mg emvododstat (day 5), geometric mean (%CV), n = 16
  T1/2: 41.4^b (39.2) h
[1]; dextromethorphan in plasma, 30 mg oral dextromethorphan alone (day 1), geometric mean (%CV)
  T1/2: 9.15 (25.2) h
[1]; [10]
  Increase in T1/2: 32 h
  Reduction in clearance (CL/F): 94%
[1]; 30 mg dextromethorphan with 250 mg emvododstat (day 5), geometric mean (%CV), n = 16
  CL/F: 81.5^b (117.0) L/h
[1]; 30 mg oral dextromethorphan alone (day 1), geometric mean (%CV)
  CL/F: 1367 (176.7) L/h
[1]; human, oral, dextromethorphan in plasma, 30 mg dextromethorphan with 250 mg emvododstat (day 5), geometric mean (%CV)
  AUC(0-t): 157 ng·h/mL
[1]; human, oral, dextromethorphan in plasma, 30 mg dextromethorphan with 250 mg emvododstat (day 5), geometric mean (%CV), n = 16, read-out: AUC0-inf
  AUC(0-inf): 362 ng·h/mL
[1]; human, oral, dextromethorphan in plasma, 30 mg dextromethorphan with 250 mg emvododstat (day 5), read-out: Tmax
  Tmax: 4 h
[1]; human, plasma, oral, dextromethorphan in plasma, 30 mg dextromethorphan with 250 mg emvododstat (day 5), geometric mean (%CV), n = 16, read-out: T1/2 (converted)
  half-life: 41 h
[1]; human, plasma, po, 30 mg, dextromethorphan in plasma, 30 mg oral dextromethorphan alone (day 1), geometric mean (%CV), read-out: T1/2 (converted)
  half-life: 9 h
[1]; human, dextromethorphan in plasma, 30 mg dextromethorphan 2 h after 250 mg oral emvododstat (day 5), geometric mean (%CV)
  Cmax: 5.85 ng/mL
[1]; human, dextromethorphan in plasma, 30 mg oral dextromethorphan alone (day 1), geometric mean (%CV)
  AUC(0-t): 18.8 ng·h/mL
[1]; human, dextromethorphan in plasma, 30 mg oral dextromethorphan alone (day 1), geometric mean (%CV), read-out: AUC0-inf
  AUC(0-inf): 21.6 ng·h/mL
[1]; human, dextromethorphan in plasma, 30 mg oral dextromethorphan alone (day 1), healthy subjects, geometric mean (%CV)
  Cmax: 2.01 ng/mL
[1]; human, dextromethorphan in plasma, 30 mg oral dextromethorphan alone (day 1), read-out: Tmax
  Tmax: 4 h
[2]
  Drug-related adverse effects: mild and reversible

## COc1ccc(C2c3[nH]c4ccc(Cl)cc4c3CCN2C(=O)Oc2ccc(Cl)cc2)cc1 (stereo not shown) [Emvododstat, 4-chlorophenyl 6-chloro-1-[4-methoxyphenyl]-1,3,4,9-tetrahydro-2H-pyrido[3,4-b]indole-2-carboxylate]
[2]
  Drug-related adverse effects: mild and reversible
[3]; read-out: EC50, decreased capsid protein
  EC50: 1.96 nM
[3]; read-out: EC50, decreased viral titer
  EC50: 2.6 nM
[3]; read-out: EC90, decreased viral titer
  EC90: 53 nM
[4]; human liver microsomes, non-competitive inhibitor, read-out: Inhibition constant (Ki) for CYP2D6
  Ki: 38 nM and 37.7 nM
[4]; in vitro
  IC50: 17 nM
[5]
  Effect on viability or proliferation: does not impair
[6]
  Myelotoxicity: no evidence of myelotoxicity
[7]
  Myelotoxicity: no evidence of myelotoxicity
[8]
  Myelotoxicity: no evidence of myelotoxicity
[9]
  In vivo CYP2D6 inhibitor classification: strong inhibitor of CYP2D6 activity

## O=C(Oc1ccc(Cl)cc1)N1CCc2c([nH]c3ccc(Cl)cc23)C1c1ccc(O)cc1 (stereo not shown) [O-desmethyl emvododstat]
[4]; in vitro, compared with emvododstat
  Inhibition of CYP2D6 activity (in words): to a lesser extent

## CN1CC[C@@]23CCCC[C@@H]2[C@@H]1Cc1ccc(O)cc13 [Dextrorphan, dextrorphan]
[1]; dextromethorphan in the presence of emvododstat
  Geometric mean metabolite/parent ratio for AUC (dextrorphan/dextromethorphan): 0.182 and 0.18
[1]; [11]
  AUC0-last: 31,852 (45.7) h·pg/mL
  AUC(0-inf): 33,194 (43.8) h·pg/mL
[1]; [12]
  AUC0-last: 29,382 (40.7) h·pg/mL
  AUC(0-inf): 30,875 (38.8) h·pg/mL
[1]; dextrorphan in plasma after 30 mg dextromethorphan with 250 mg emvododstat
  Tmax: 4 (1–4) h
[1]; dextrorphan, Cmax LSM ratio just inside, 90% CIs outside of the no effect range 0.80 to 1.25
  Effect of CYP2D6 inhibition on peak exposure (Cmax): slightly affected
[1]; human, oral, dextrorphan in plasma after 30 mg dextromethorphan alone, geometric mean (%CV)
  Cmax: 5 ng/mL
[1]; human, oral, dextrorphan in plasma after 30 mg dextromethorphan with 250 mg emvododstat, geometric mean (%CV)
  Cmax: 4.05 ng/mL
[1]; human, plasma, oral, 30 mg, dextrorphan in plasma after 30 mg dextromethorphan alone, geometric mean (%CV), read-out: T1/2 (converted)
  half-life: 5.86 h
[1]; human, plasma, oral, dextrorphan in plasma after 30 mg dextromethorphan with 250 mg emvododstat, geometric mean (%CV), read-out: T1/2 (converted)
  half-life: 8.41 h
[1]; human, plasma, oral, dextrorphan, alone and in combination with emvododstat, read-out: Effective T1/2
  half-life: 6 to 8 h
[1]; human, plasma, oral, dextrorphan, 30 mg dextromethorphan capsules alone
  AUC(0-t): 31.9 ng·h/mL
[1]; human, plasma, oral, dextrorphan, 30 mg dextromethorphan capsules alone, read-out: AUC0-inf
  AUC(0-inf): 33.2 ng·h/mL
[1]; human, plasma, oral, dextrorphan, dextromethorphan given concurrently with emvododstat
  AUC(0-t): 29.4 ng·h/mL
[1]; human, plasma, oral, dextrorphan, dextromethorphan given concurrently with emvododstat, read-out: AUC0-inf
  AUC(0-inf): 30.9 ng·h/mL
[1]; prior to administration of emvododstat
  Geometric mean metabolite/parent ratio for AUC (dextrorphan/dextromethorphan): 1.69
